Data set [1] deals with Total MAO. Description: Total rat MAO activity (rat liver mitochondrial preparation, tyramine substrate). It is filed as biochemical. The method, then:
Rat MAO was prepared from rat liver by rinsing the 1 g liver sample several times in 14 ml KCl-EDTA-solution to remove all blood. Then 1 g liver sample was homogenized in 4 ml ice-cold potassium phosphate buffer (0.1 M, pH 7.4) with an Ultra-Turrax homogenizer (setting 11 000 rpm, 4×10 s). After centrifugation at 500 g for 10 min at 4° C. the supernatant was carefully withdrawn and was centrifuged at 12 300 g for 15 min at 4° C. The supernatant was discharged and sedimented mitochondria were resuspended in 4 ml fresh phosphate buffer and centrifuged as previously. The mitochondria were suspended in 4 ml phosphate buffer and homogenized with an Ultra-Turrax homogenizer (setting 11 000 rpm, 2×10 s). Mitochondrial preparate was aliquoted and stored at −70° C. Total MAO activity was measured in a similar way as for VAP-1 SSAO except that SSAO enzyme was replaced by MAO enzyme. To each well was added a predetermined amount of inhibitor if required. The amount of inhibitor varied in each assay but was generally at a final concentration of between 10 nM and 800 μM. Controls lacked inhibitor. The inhibitor was in a total volume of 20 μl in water. The following reagents were then added. 0.2 M potassium phosphate buffer pH 7.6 for a total reaction volume of 200 μl, 50 μl of freshly made chromogenic solution (as above) and 50 μl of MAO preparation (or needed amount of MAO). The plates were incubated for 30 min at 37° C. and the background absorbance measured at 490 nm using a Wallac Victor II multilabel counter. To initiate the enzyme reaction 20 μl of 5 mM tyramine (final concentration 0.5 mM) was added and the plate incubated for 1 h at 37° C. The increase in absorbance, reflecting MAO activity, was measured at 490 nm. Inhibition was presented as percent inhibition compared to control after correcting for background absorbance and IC50 values calculated using GraphPad Prism. Clorgyline and pargyline (inhibitors of MAO-A and -B respectively) at 0.5 μM were added to some wells as positive controls for MAO inhibition.

The target in data set [2] is T1, Recombinant human VAP-1 SSAO (Homo sapiens, UniProt Q16853).
T1 construct: made in house; host or cells: Chinese Hamster Ovary (CHO) cells; clarified NP40 cell lysate used directly
T1 sequence (Q16853 1-763): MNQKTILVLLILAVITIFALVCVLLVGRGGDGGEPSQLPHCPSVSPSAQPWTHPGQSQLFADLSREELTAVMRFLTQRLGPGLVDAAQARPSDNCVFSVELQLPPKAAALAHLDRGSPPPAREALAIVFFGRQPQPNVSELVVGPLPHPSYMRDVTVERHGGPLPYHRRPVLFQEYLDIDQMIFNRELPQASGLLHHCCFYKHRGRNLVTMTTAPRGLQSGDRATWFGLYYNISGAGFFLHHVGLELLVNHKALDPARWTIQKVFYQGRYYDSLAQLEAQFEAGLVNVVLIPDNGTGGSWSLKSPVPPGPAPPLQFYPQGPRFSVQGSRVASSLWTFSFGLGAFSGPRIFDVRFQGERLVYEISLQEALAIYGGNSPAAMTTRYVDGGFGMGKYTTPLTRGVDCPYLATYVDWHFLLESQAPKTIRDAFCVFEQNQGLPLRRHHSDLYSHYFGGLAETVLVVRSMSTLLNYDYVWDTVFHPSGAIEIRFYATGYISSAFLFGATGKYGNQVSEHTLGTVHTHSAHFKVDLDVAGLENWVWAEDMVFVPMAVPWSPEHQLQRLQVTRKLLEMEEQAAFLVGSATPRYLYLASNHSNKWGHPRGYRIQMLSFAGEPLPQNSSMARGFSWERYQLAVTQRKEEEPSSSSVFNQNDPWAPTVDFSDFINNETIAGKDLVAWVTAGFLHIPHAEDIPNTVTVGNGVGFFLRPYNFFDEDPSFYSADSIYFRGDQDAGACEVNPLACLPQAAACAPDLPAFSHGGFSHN
Description: In vitro inhibition of VAP-1 SSAO activity (coupled colorimetric method, benzylamine substrate). It is filed as biochemical. The note with it: CHO cell lysate, 1 mM benzylamine, read-out: VAP-1 SSAO Inhibitory activity IC50. Here is the method: VAP-1 SSAO activity was measured using the coupled colorimetric method essentially as described for monoamine oxidase and related enzymes (Holt, A., et al., Anal. Biochem. 244:384-392 (1997)). Recombinant human VAP-1 SSAO expressed in Chinese Hamster Ovary (CHO) cells was used as a source of VAP-1 SSAO for activity measurements. Native CHO cells have negligible SSAO activity. These cells and their culture have previously been described (Smith, D. J., et al., J. Exp. Med. 188:17-27 (1998)). A cell lysate was prepared by suspending approximately 3.6×10^8 cells in 25 ml lysis buffer (150 mM NaCl, 10 mM Tris-Base pH 7.2, 1.5 mM MgCl2, 1% NP40) and incubating at 4° C. overnight on a rotating table. The lysate was clarified by centrifugation at 18 000 g for 5 min at room temperature and the supernatant used directly in the assay. The VAP-1 SSAO assay was performed in 96 well microtitre plates as follows. To each well was added a predetermined amount of inhibitor if required. The amount of inhibitor varied in each assay but was generally at a final concentration of between 1 nM and 50 μM. Controls lacked inhibitor. The inhibitor was in a total volume of 20 μl in water. The following reagents were then added. 0.2 M potassium phosphate buffer pH 7.6 to a total reaction volume of 200 μl, 50 μl of freshly made chromogenic solution containing 1 mM vanillic acid, 500 μM 4-aminoantipyrine and 8 U/ml horseradish peroxidase and an amount of CHO cell lysate containing VAP-1 SSAO that caused a change of 0.6 A490 per h. This was within the linear response range of the assay. The plates were incubated for 30 min at 37° C. and the background absorbance measured at 490 nm using a Wallac Victor II multilabel counter. To initiate the enzyme reaction 20 μl 10 mM benzylamine (final concentration=1 mM) was added and the plate incubated for 1 h at 37° C. The increase in absorbance, reflecting VAP-1 SSAO activity, was measured at 490 nm. Inhibition was presented as percent inhibition compared to control after correcting for background absorbance and IC50 values calculated using GraphPad Prism.

Broadly, the melting point is the temperature of the solid-liquid transition. In general, IC50 refers to the concentration at which inhibition is half-maximal. As to `COc1ccc(Oc2cc(=O)n(-c3ccccc3)nc2-c2nc[nH]n2)cc1` [Compound 14], the melting point lay in the range of 253 to 257 °C. The “Total MAO Inhibitory activity (%)” value in data set [1] (at 100 μM) stood at 0%. In data set [2], the IC50 was 0.37 µM.
`O=c1cc(Sc2ccccc2)c(-c2nc[nH]n2)nn1-c1ccccc1` [Compound 16, 2-phenyl-5-phenylsulfanyl-6-(1H-1,2,4-triazol-3-yl)-3(2H)-pyridazinone] yielded a melting point of 245 to 250 °C. In addition, in data set [1] (at 100 μM), the “Total MAO Inhibitory activity (%)” value came to 24%. In addition, the IC50 in data set [2] amounted to 0.64 µM.
Turning to `Cn1cc(-c2nn(-c3ccccc3)c(=O)cc2Oc2ccccc2)cn1` [Compound 17, 6-(1-methyl-1H-pyrazol-4-yl)-5-phenoxy-2-phenylpyridazin-3(2H)-one], the melting point lay in the range of 195 to 197 °C. In data set [1] (at 100 μM), the “Total MAO Inhibitory activity (%)” value is given as 22%. For the same compound, the IC50 in data set [2] came to 236 µM.
Taken in the same sequence, the figures for `O=c1cc(Oc2ccccc2)c(-c2ccc(F)cc2)nn1-c1ccccc1` [Compound 22] were 146 to 148 °C, 0% and ~60 µM.
In the same order, the values of `O=c1cc(Oc2ccccc2)c(-c2nc[nH]n2)nn1-c1ccc(Cl)cc1` [Compound 25] are 246 to 247 °C, 0% and 0.35 µM.
Turning to `COc1cccc(-n2nc(-c3nc[nH]n3)c(Oc3ccccc3)cc2=O)c1` [Compound 27], the melting point fell in the range of 253 to 254 °C. Also, the “Total MAO Inhibitory activity (%)” value in data set [1] (at 100 μM) was 3%. The IC50 in data set [2] was 2 µM.
In the same order, the values of `CNc1cc(=O)n(-c2ccccc2)nc1-c1nc[nH]n1` [Compound 28] are 245 to 247 °C, 10% and 3.6 µM.
Taken in the same sequence, the figures for `CC(C)Nc1cc(=O)n(-c2ccccc2)nc1-c1nc[nH]n1` [Compound 29, 5-isopropylamino-2-phenyl-6-(1H-1,2,4-triazol-3-yl)-3(2H)-pyridazinone] were 203 to 205 °C, 9% and 0.27 µM.
Taken in the same sequence, the figures for `O=c1cc(Oc2ccccc2)c(-c2nc[nH]n2)cn1-c1ccccc1` [Compound 34, 4-phenoxy-5-(1H-1,2,4-triazol-3-yl)-1-phenylpyridin-2(1H)-one] were 275 to 276 °C, 24% and 1.6 µM.
With `CCOc1cc(=O)n(-c2ccccc2)nc1-c1nc[nH]n1` [Compound 36], the melting point was in the range of 195 to 197 °C. Further, in data set [1] (at 100 μM), the “Total MAO Inhibitory activity (%)” value amounted to 3%. Moreover, in data set [2], the IC50 was 16 µM.
Taken in the same sequence, the figures for `O=c1cc(NCc2ccccc2)c(-c2nc[nH]n2)nn1-c1ccccc1` [Compound 42, 5-benzylamino-2-phenyl-6-(1H-1,2,4-triazol-3-yl)-3(2H)-pyridazinone] were 192 to 193 °C, 2% and 0.72 µM.
As for `O=c1cc(NC2CCCCC2)c(-c2nc[nH]n2)nn1-c1ccccc1` [Compound 43, 5-cyclohexylamino-2-phenyl-6-(1H-1,2,4-triazol-3-yl)-3(2H)-pyridazinone], in data set [1] (at 100 μM), the “Total MAO Inhibitory activity (%)” value is reported as 5%. Also, the IC50 in data set [2] turned out to be 0.078 µM.
Turning to `O=c1cc(Oc2ccccc2)c(-c2nc[nH]n2)nn1-c1cccc(F)c1` [Compound 46], the melting point fell in the range of 262 to 264 °C. Moreover, in data set [1] (at 100 μM), the “Total MAO Inhibitory activity (%)” value is 9%. Further, in data set [2], the IC50 was determined as 0.34 µM.
On to `O=c1cc(Nc2cccnc2)c(-c2nc[nH]n2)nn1-c1ccccc1` [Compound 52], for which the melting point fell in the range of 172 to 174 °C. Moreover, in data set [1] (at 100 μM), the “Total MAO Inhibitory activity (%)” value stood at 9%. In addition, the IC50 in data set [2] is 3.5 µM.
Taken in the same sequence, the figures for `COc1ccc(Nc2cc(=O)n(-c3ccc(Cl)cc3)nc2-c2nc[nH]n2)cc1` [Compound 57, 2-(4-chlorophenyl)-5-[(4-methoxyphenyl)amino]-6-(1H-1,2,4-triazol-3-yl)-3(2H)-pyridazinone] were 251 to 252 °C, 5% and 0.044 µM.
For the compound `O=c1cc(Nc2ccc3c(c2)OCO3)c(-c2nc[nH]n2)nn1-c1ccc(Cl)cc1` [Compound 59, 2-(4-chlorophenyl)-5-[(3,4-methylenedioxyphenyl)amino]-6-(1H-1,2,4-triazol-3-yl)-3(2H)-pyridazinone], the melting point was in the range of 270 to 273 °C. Also, the “Total MAO Inhibitory activity (%)” value in data set [1] (at 250 μM) came out at 14%. In data set [2], the IC50 was 0.08 µM.
In the same order, the values of `COc1cc(Nc2cc(=O)n(-c3ccc(Cl)cc3)nc2-c2nc[nH]n2)cc(OC)c1OC` [Compound 61] are 238 to 241 °C, 17% and 0.3 µM.
As to `O=c1cc(Nc2ccc(N3CCCCC3)cc2)c(-c2nc[nH]n2)nn1-c1ccc(Cl)cc1` [Compound 62], the melting point was in the range of 240 to 242 °C. For the same compound, in data set [1] (at 250 μM), the “Total MAO Inhibitory activity (%)” value is 21%. Further, the IC50 in data set [2] was determined as 0.28 µM.
In the same order, the values of `CN(C)c1ccc(Nc2cc(=O)n(-c3ccc(Cl)cc3)nc2-c2nc[nH]n2)cc1` [Compound 65] are 276 to 279 °C, 8% and 0.063 µM.
The compound `C=CCNc1cc(=O)n(-c2ccc(Cl)cc2)nc1-c1nc[nH]n1` [Compound 70] gave a melting point of 212 to 215 °C. The “Total MAO Inhibitory activity (%)” value in data set [1] (at 50 μM) was 18%. Also, the IC50 in data set [2] turned out to be 0.14 µM.
Taken in the same sequence, the figures for `O=c1cc(NCC2CC2)c(-c2nc[nH]n2)nn1-c1ccc(Cl)cc1` [Compound 71] were 255 to 257 °C, 16% and 0.17 µM.
Compound `C=CCOc1cc(=O)n(-c2ccc(Cl)cc2)nc1-c1nc[nH]n1` [Compound 73] displayed a melting point of 172 to 175 °C. In data set [1] (at 50 μM), the “Total MAO Inhibitory activity (%)” value came to 0%. Also, the IC50 in data set [2] turned out to be 2.2 µM.
